Source: US20040072180A1, “Dna binding peptide domains and a method for providing domains of this type” (priority 2000, published 2004)

Tested on: yeast strain YM 4271 transformed with pHISi3xE2Fwt
Assay: Growth of pHISi3xE2Fwt-transformed yeast colonies on histidine-free minimal medium agar with increasing 3-aminotriazole
Assay type: cell-based
Conditions: no histidine
Method: 1 μg of pHISi3xE2Fwt was completely linearized with 10 U of XhoI for 1 hour, purified using the QiaQuick PCR Purification Kit (Qiagen/Hilden, Germany) according to the manufacturer's instructions and taken up in 50 μl of water. […] This culture was incubated with shaking at 30° C. until an optical density of 0.4-0.6 at 600 nm was reached. The culture was then removed by centrifugation at 1000× g for 5 minutes, and the cells were taken up in 1.5 ml of 100 mM lithium acetate pH 7.5, 10 mM Tris-HCl pH 7.5, 1 mM EDTA. 100 μl of said cells, 50 μl of the linearized plasmid and 100 μg of heat-denatured salmon sperm DNA were admixed with 600 μl of a PEG/LiAc solution (100 mM lithium acetate pH 7.5, 10 mM Tris-HCl pH 7.5, 1 mM EDTA, 40% (w/v) polyethylene glycol 4000) and incubated with shaking at 30° C. for 30 min. After adding 70 μl of dimethyl sulfoxide, the mixture was incubated at 42° C. for 15 min. The cells were subsequently removed by centrifugation, washed in 1 ml of 10 mM Tris-HCl pH 7.5, 1 mM EDTA and plated out in their entirety on a minimal medium agar plate without addition of histidine, on which 12 colonies had grown after 7 days at 30° C.

How did the “3-AT concentration at which growth was completely suppressed” value (one clone (yeast3xE2Fwt)) turn out when Nc1nc[nH]n1 [3-aminotriazole] was run?
The value was 2 mM.

And the “3-AT concentration at which growth was suppressed markedly” value (one clone (yeast3xE2Fwt))?
Its value is 0.5 mM.

And the “3-AT concentration at which growth was inhibited” value (remaining 10 clones)?
Its value is greater than 30 mM.

And the “3-AT concentration at which clones did not grow any more” value (this clone and another clone)?
The value was 3 mM.
